Data published in patent publication US11773086B2, “Fungal modulators” (TRUSTEES OF BOSTON UNIVERSITY, priority 2020, dated 2023).

What was measured:
[1] = system: FLC-resistant Candida auris; assay: Checkerboard (dose-response matrix) with fluconazole, FICI; format: cell-based
Method: Generally, the synergy is measured by determining the fractional inhibitory concentration (FIC) value of the combination. […] FIC values for both agents in a particular square/well are calculated in this way followed by determination of the FIC index (sum of the FICs of each agent in the particular square/well).
(§1) Compound potency was assessed alone by dose response assays or in combination with another compound by dose-response matrixes in 96-well plates, or 384-well, flat-bottom, microtiter plates (Corning) as previously described. Plates were incubated at 30° C. for the indicated time period. Growth was quantified by measuring OD600 and corrected for medium background. All strains were assessed in biological duplicate experiments with technical duplicates. Growth was normalized to untreated controls and plotted as a heat map using Java TreeView 1.1.6r4. For dose-response matrixes fractional inhibitory concentration index at 90% growth inhibition (FICI90) was calculated as previously described. The fluconazole Etest susceptibility assay was performed as previously described. Briefly, 200 μL of 5×10^6 cells/mL were plated on YPD agar (1%) plates with either with 50 μM azoffluxin or containing DMSO.

C. glabrata (BG2) = assay: Azoffluxin dose-response with background fluconazole; format: cell-based, Candida glabrata
Method: FIGS. 2A-2E illustrate the above-described screening of the BU-CMD which identified azoffluxin as a fluconazole (FLC) potentiator against C. auris. […] Growth, as determined by optical density at 600 nm (OD600), is plotted in the presence of each CMD compound alone on the y-axis and in combination with FLC on the x-axis. Dotted lines represent 7-median absolute deviations from the median for each condition. […] FIG. 2B depicts the synergistic interactions. […] Growth was measured by the OD600 and normalized to the no drug control (see color bar). The fractional inhibitory concentration index (FICI) was calculated to determine the chemical interaction, with a value below 0.5 indicating synergy. […] FIG. 2D depicts FLC Etest strips in the presence and absence of 50 μM azoffluxin. […]
Compound potency was assessed alone by dose response assays or in combination with another compound by dose-response matrixes in 96-well plates, or 384-well, flat-bottom, microtiter plates (Corning) as previously described. […] Growth was quantified by measuring OD600 and corrected for medium background. All strains were assessed in biological duplicate experiments with technical duplicates. […] For dose-response matrixes fractional inhibitory concentration index at 90% growth inhibition (FICI90) was calculated as previously described. […]

C. auris efflux = assay: Nile red accumulation assay (flow cytometry); format: cell-based, Candida auris
Method: FIGS. 5A, 5B and 6 illustrate that azoffluxin increases fluconazole (FLC) bioavailability by inhibiting Cdr1-mediated efflux in C. auris. FIG. 5A show C. auris strains grown to exponential phase and treated with 50 μM azoffluxin for 10 minutes when indicated, followed by addition of Nile red for 20 minutes. Cells were then imaged on the DIC and DsRed channels at equivalent exposure times. FIG. 5B: depicts a flow cytometer and histograms of the cells, showing the fluorescence on the PE channel per event for ˜20,000 events. […] FIG. 6 illustrates azoffluxin increases fluconazole (FLC) bioavailability by inhibiting Cdr1-mediated efflux in C. auris. Dose response assays were conducted with a C. auris parental strain, a strain with the efflux pump gene CDR1 deleted, and a strain with the efflux pump CDR4-1 deleted. FLC was titered in a two-fold dilution on the x-axis in the absence and presence of 50 μM azoffluxin. Growth was measured at 48 hours using OD600 and normalized to a no drug control well (see color bar).
Cellular efflux was determined by measuring Nile red accumulation, as previously described. Cells were subcultured from an OD600 0.1 in YPD for 4 hours until exponential phase was reached. […] To quantify fluorescence, a CytoFlex Flow Cytometer (Beckman Coulter) was used. […] Each sample was run using the CytExpert Software until ˜20,000 events had been recorded. […]

C. auris = assay: Dose-response of other antifungal compounds with or without 50 μM azoffluxin; format: cell-based, Candida auris; details: 48 hours, YPD
Method: FIGS. 7A and 7B illustrates that azoffluxin potentiates intracellular acting compounds against C. auris, to a similar degree as deletion of CDR1. […] Cells were then imaged on the DIC and DsRed channels at equivalent exposure times as those in FIG. 5A. FIG. 7B depicts a dose response assays conducted with a C. auris parental strain in the absence and presence of 50 μM azoffluxin where indicated, as well as with a strain with the efflux pump gene CDR1 deleted. Indicated compounds were titered in a two-fold dilution on the x-axis. Growth was measured after 48 hours in YPD using OD600 and normalized to a no drug control well (see color bar).
as §1, with “The fluconazole Etest susceptibility assay was performed as previously described. Briefly, 200 μL of 5×10^6 cells/mL were plated on YPD agar (1%) plates with either with 50 μM azoffluxin or containing DMSO.” left out

[2] = Stability and activity in plasma; format: in vitro ADME

C=C(C)C[C@@H](O)COc1cc2c(cc1C1(c3cc4c(cc3OC[C@H](O)CC(=C)C)OCO4)C(=O)Nc3cc(F)ccc31)OCO2 [CMLD012336]
interaction with fluconazole ([1]; Clade III isolate B12037 lacking Erg11 V125A/F126L and Mrr1 N647T): potent synergistic interaction | fractional inhibitory concentration index (FICI) ([1]; combination with fluconazole, C. auris Ci6684 (Erg11 Y132F), <0.5 = synergy): 0.25 | FICI ([1]; fractional inhibitory concentration index for enhancement of FLC activity in FLC-resistant Candida auris, <0.5 strong synergy, 2 = no synergy): 0.130 | potentiation of fluconazole across C. auris clades ([1]; isolates of the four major clades, Clade III the exception): potentiated fluconazole in multiple isolates from three of the four major clades | enhancement of fluconazole efficacy (C. glabrata (BG2); C. glabrata, despite increasing Nile red): did not enhance the efficacy of fluconazole | enhancement of fluconazole activity (C. glabrata (BG2); fluconazole-sensitive laboratory strain BG2, background FLC 0.25 μg/mL): did not enhance the activity of fluconazole | increase in relative cell-associated Nile red signal (C. auris efflux; 50 μM azoffluxin, C. auris Ci6684): 42 fold | increase in Nile red accumulation (C. auris efflux; Clade III isolates B11221 and B11222): 36-40 fold | sensitivity to caspofungin and amphotericin B (C. auris): no impact on sensitivity | sensitization to gepinacin, cerulenin, and cycloheximide (C. auris): to the same extent as CDR1 deletion | stability in plasma [2]: stable and retains activity in plasma
